Experimental data taken from publication PMC6962373, “Combinatorial allosteric modulation of agonist response in a self-interacting G-protein coupled receptor” (Communications Biology, 2020).
Read-outs that look alike come from different tables or passages of the source.

Key:
Format in all cases: cell-based, human
[1] = tested on: HEK293 S1PR1 expressing cells; experiment: AKT phosphorylation ELISA in HEK293 S1PR1 expressing cells; conditions: 0.1 µM S1P or FTY720-P for 5 min, PTX 300 ng/mL, CCG215022 50 µM
Method: HEK293 cells were plated in 96 multi-well plates and grown until 90% confluent. […] To quantify pERK1/2 and total ERK, 40 µg and 5 µg of total protein extract were used from each well, respectively. The chromogenic signals were read at the Sunrise Tecan multi-plate reader and expressed as pERK/ERKTotal signal ratio. […] AKT phosphorylation was quantified by ELISA as above in cell lysates after 5 min stimulation, with the AKT (pS473 + Total) ELISA Kit from Abcam (cat. n. ab176657). […]
pertussis toxin (PTX) for 18 hours and with 0.1% DMSO alone or with 50 µM CCG215022 […]
20 nM EGF for 5 min. pERK1/2 or pAKT were measured in the cell extracts by ELISA and expressed as relative units; n=12 independent experiments. (b) HEK293 cells expressing […]
(§1) ELISA and expressed as relative units; n=3 independent experiments. […]

[2] = tested on: HEK293 S1PR1 expressing cells; experiment: EGF-mediated ERK1/2 phosphorylation in HEK293 S1PR1 expressing cells (inhibitor specificity control); conditions: CCG215022 50 µM, 20 nM EGF for 5 min
Method: HEK293 cells were plated in 96 multi-well plates and grown until 90% confluent. After the S1P-starvation, the cell monolayers were treated as described in the text and then processed using the ERK1/2 (pT202/Y204 + Total) ELISA Kit from Abcam (cat n. ab176660), following the manufacturer guidelines and adding the HALT™ Proteases & Phosphatases inhibitor cocktail (Thermo Fisher Scientific) to the lysis buffer provided with the kit. To quantify pERK1/2 and total ERK, 40 µg and 5 µg of total protein extract were used from each well, respectively. The chromogenic signals were read at the Sunrise Tecan multi-plate reader and expressed as pERK/ERKTotal signal ratio. […] AKT phosphorylation was quantified by ELISA as above in cell lysates after 5 min stimulation, with the AKT (pS473 + Total) ELISA Kit from Abcam (cat. n. ab176657).
Supplementary Figure 2 | Effects of S1PR1 overexpression in HEK293 cells. […]
20 nM EGF for 5 min. pERK1/2 or pAKT were measured in the cell extracts by ELISA and expressed as relative units; n=12 independent experiments. […]
as §1
without 30 min pre-treatment with 100 µM ML056. Cell extracts were then analysed in immunoblotting for S1PR1, ERK1/2 and pERK1/2.

[3] = tested on: HEK293 cells expressing S1PR1-eGFP; experiment: Anti-GFP immunoprecipitation of S1PR1-eGFP, immunoblot for β-arrestin 1/2 and ERK1/2; conditions: 0.1 µM, co-immunoprecipitation; for S1PR1 binding to β-arrestins in the late signalling phase: 30 min
Method: (§2) Cells were washed twice in ice-cold phosphate-buffered saline and lysed in 20 mM HEPES, 150 mM NaCl, 1% Triton X-100, 0.15% Nonidet P-40, 1× HALT™ Proteases and Phosphatases inhibitor cocktail, 1.25 U/mL Benzonase. Clarified lysates were incubated for 1 h at +4 °C with GFP-Trap® resin (Chromotek) and extensively washed with lysis buffer. Finally, the immunopurified material was eluted in 4% SDS and analysed by immunoblot. The equal loading was based on the GFP amount reading the samples in the Cary Eclipse Varian spectrofluorometer with 488 nm λEx and 509 nm λEm. In some experiments, cells expressing S1PR1 without the GFP tag were used as control and the equal loading was based on total protein concentration measured with the BCA method (G Biosciences).

[4] = tested on: HEK293 cells expressing mS1PR1; experiment: ERK1/2 phosphorylation ELISA/immunoblot in HEK293 cells expressing mS1PR1; conditions: for change of potency in stimulating ERK phosphorylation, mS1PR1 vs S1PR1 clones / maximal pERK response in mS1PR1 vs S1PR1 clones: 5 min stimulation, 1 pM–1 mM ligand
Method: 95% CI are reported in Supplementary Fig. 4.
(§3) Human embryonic kidney-293 (HEK293, ATCC CRL-1573) cells were routinely maintained in complete DMEM/F12 1:1 mixture (Sigma Aldrich) containing 10% FBS and 0.5 mM N-acetyl cysteine. Mycoplasma detection was performed routinely by checking for cytoplasmic DNA and every six months with Universal Mycoplasma Detection Kit (ATCC 30–1012 K). The stop-less coding sequences of either wild-type S1PR1 or mS1PR1 (without the additional modifications present in the constructs for the protein production) were obtained from GeneArt (Thermo Fisher Scientific) and inserted into the HindIII/BamHI-digested pEGFP-N1 vector (Takara) to express S1PR1- and mS1PR1-eGFP. The pEFGP-N1-S1PR1 or pEFGP-N1-mS1PR1 plasmids were further modified by re-introducing the TAG stop codon at the 3′ end of the S1PR1 open reading frame to express untagged S1PR1 or mS1PR1, respectively, using the primer pair 5’-[…]-3’ and 5′-[…]-3′. Cell monolayers were transfected with JetPEI™ (Polyplus) and the appropriate plasmid vectors. Transfected cell cultures were passed once a week for three times and then the GFP^+ cells were sorted in a MoFlo XDP (Beckman Coulter). Sorted cell cultures were expanded and sorted again and the expression of the desired chimeric protein verified by immunoblot. Sorting was performed at the Flow Cytometry Resourc, Advanced Cytometry Technical Applications Laboratory of IRCCS San Raffaele Scientific Institute.
(§4) Two hundred nanomole of S1PR1/L of culture medium were used at […] receptor concentration. Under sterile conditions, purified receptor was first dialysed three times against the serum-free medium. Medium-equilibrated S1PR1 was then incubated 24 h at +4 °C in complete culture medium. The depletion procedure was performed twice for each lot of culture medium. […] The depleted medium was also used to prepare 1000× stock solutions of each of the two S1PR1 agonists or the GRK inhibitor CCG215022, and the 10× ML056 stock solution used in the cell-based experiments.
(§5) HEK293 cells were plated in 96 multi-well plates and grown until 90% confluent. […] To quantify pERK1/2 and total ERK, 40 µg and 5 µg of total protein extract were used from each well, respectively. The chromogenic signals were read at the Sunrise Tecan multi-plate reader and expressed as pERK/ERKTotal signal ratio. […] AKT phosphorylation was quantified by ELISA as above in cell lysates after 5 min stimulation, with the AKT (pS473 + Total) ELISA Kit from Abcam (cat. n. ab176657).

[5] = tested on: HEK293 cells expressing mS1PR1-eGFP; experiment: Anti-GFP immunoprecipitation of mS1PR1-eGFP, immunoblot for β-arrestin 1/2 and ERK1/2; conditions: 0.1 µM, co-immunoprecipitation
Method: as §2

[6] = tested on: HEK293 cells expressing S1PR1; experiment: ERK1/2 phosphorylation ELISA/immunoblot in HEK293 cells expressing S1PR1
Method: as §3, §4, §5

[7] = tested on: HEK293 cells expressing mS1PR1-eGFP; experiment: Fluorescence-based analysis of S1PR1 down-modulation, mS1PR1-eGFP; conditions: 4 h-long treatment
Method: (§7) Cells were washed twice in ice-cold phosphate-buffered saline and lysed in 20 mM HEPES, 150 mM NaCl, 1% Triton X-100, 0.15% Nonidet P-40, 1× HALT™ Proteases & Phosphatases inhibitor cocktail, 1.25 U/mL Benzonase. Lysates were clarified were used and 50 µg of total protein from each sample were read in the Cary Eclipse Varian spectrofluorometer with 488 nm λEx and 509 nm λEm to measure the eGFP amount.

[8] = tested on: HEK293 cells expressing mS1PR1-eGFP; experiment: Confocal microscopy count of cytosolic eGFP+ clusters (receptor internalisation), mS1PR1-eGFP; conditions: 0.1 µM, 20 min
Method: (§6) Cells expressing S1PR1-eGFP or mS1PR1-eGFP were plated onto poly-L-lysine-coated 8 well µ-slides (Ibidi) at 3 × 10^4 cell/well. […] Images were deconvoluted using Huygens Professional Software (Scientific Volume Imaging). Mid-plane z-sections were used for counting cytosolic GFP^+ vesicles in cells stimulated for 20 min. Confocal imaging was performed at the Advanced Light and Electron Microscopy Bioimaging Centre of IRCCS San Raffaele Scientific Institute. We used a custom Matlab script (Supplementary Data 1) performing the following image analysis: (i) the membranes were segmented from the image, identifying regions of both absolute and local high intensity (Supplementary Fig. 9A–G) in order to include all the membranes independently of their intensity; (ii) morphological erosion was used to clear small objects and to smooth the edges of the identified membranes (Supplementary Fig. 9H, I); (iii) the region of interest was defined as the region completely enclosed by a membrane (Supplementary Fig. 9J, K); (iv) GFP^+ cytosolic vesicles were identified as local intensity maxima (Supplementary Fig. 9L–O) within the region of interest and counted. Experiments were replicated independently three times. The number of vesicles from 40 to 150 cells were counted as detailed in Fig. 4 legend and the statistical analysis performed with the GraphPad Prism software.

[9] = tested on: HEK293 cells expressing S1PR1-eGFP; experiment: Confocal microscopy count of cytosolic eGFP+ clusters (receptor internalisation), S1PR1-eGFP; conditions: 0.1 µM, 20 min
Method: as §6

[10] = tested on: HEK293 cells expressing S1PR1-eGFP; experiment: Fluorescence-based analysis of S1PR1 down-modulation, S1PR1-eGFP; conditions: 4 h-long treatment
Method: as §7

| Compound | effect on AKT phosphorylation [1] | S1PR1 binding to β-arrestins in the late signalling phase [3] | ERK1/2 recruited onto activated S1PR1 [3] | change of potency in stimulating ERK phosphorylation, mS1PR1 vs S1PR1 clones [4] | maximal pERK response in mS1PR1 vs S1PR1 clones [4] | stable interaction of mS1PR1 with β-arrestin [5] | number of clusters/cell, 95% CI [8] | number of clusters/cell, 95% CI [9] | further results |
| --- | --- | --- | --- | --- | --- | --- | --- | --- | --- |
| CC1=C(C(=O)Nc2ccc3[nH]ncc3c2)C(c2ccc(F)c(C(=O)NCc3ccccn3)c2)NC(=O)N1 (centres unmarked) [CCG215022] | not modified | – | – | – | – | – | – | – | effect on EGF-mediated ERK1/2 phosphorylation [2]: does not inhibit |
| CCCCCCCCc1ccc(CC[C@](N)(CO)COP(=O)(O)O)cc1 [FTY720-P, FTY720 (S)-phosphate] | induced | stable binding to β-arrestins | did not show an increase of the interaction with ERK1/2 above baseline levels | ten-fold decrease of their potency | not affected | neither S1P nor FTY720-P were capable to induce a stable interaction | 8.7–11 clusters/cell | 9.9–14.1 clusters/cell | pERK1/2 kinetics in mS1PR1 cells ([4]; 0.1 µM agonist): stable level of ERK1/2 phosphorylation; time at which pERK1/2 response decreased to the baseline level ([6]; 0.1 µM agonist): 20 min; time of early pERK1/2 peak ([6]; 0.1 µM agonist, S1P-starved cells): 5 min; mS1PR1 level in cell lysates (receptor degradation) [7]: remained stable; S1PR1 level in cell lysates (receptor degradation) [10]: barely detectable |
| CCCCCCc1cccc(NC(=O)[C@H](N)CCP(=O)(O)O)c1 [ML056] | – | – | – | – | – | – | – | – | effect on agonist-induced signalling response (pERK1/2) ([6]; 30 min pre-treatment with 100 µM ML056, then 0.1 µM S1P, immunoblot): abrogated |
| CCCCCCCCCCCCC/C=C/[C@@H](O)[C@@H](N)COP(=O)(O)O [S1P, Sphingosine 1-phosphate] | induced | only a limited interaction | recruited more ERK1/2 | ten-fold decrease of their potency | not affected | neither S1P nor FTY720-P were capable to induce a stable interaction | 5.7–7.7 clusters/cell | 6.7–10.2 clusters/cell | pERK1/2 still detectable after 60 min, % of its maximal value [6]: 50%; time of early pERK1/2 peak [6]: 5 min |
| pertussis toxin | abolishes | – | – | – | – | – | – | – | effect on agonist-induced ERK phosphorylation in mS1PR1-expressing clones ([4]; 300 ng/mL PTX, stimulation with either agonist): reduced the ERK phosphorylation to basal; effect on S1P- and FTY720-P-induced ERK1/2 phosphorylation ([6]; 300 ng/mL pertussis toxin for 18 h, then 0.1 µM agonist): undetectable |
